Where a name gives a salt, the structure may show the parent alone. Read-outs that look alike come from different tables or passages of the source.
How the values were obtained:
[1] = biological target: BIR3 domain of human XIAP (residues 252-350) (Homo sapiens (Human), UniProt P98170); assay: XIAP in vitro competitive displacement binding assay (fluorescence polarization); conditions: for inhibition at 0.04 µM: 1 h, read-out: IC50 or PI Xiap: PI; for IC50: read-out: IC50 or PI Xiap: IC50
[2] = tested on: EVSA-T (human breast carcinoma); assay: Anti-proliferative activity, Alamar Blue assay, EVSA-T; format: cell-based; conditions: Homo sapiens, EVSA-T, read-out: EVSA-T prolif (EC50)
[3] = biological target: BIR3 domain of human cIAP-1 (residues 267-363) (Homo sapiens (Human), UniProt Q13490); assay: cIAP-1 in vitro competitive displacement binding assay (fluorescence polarization; Probe A AVPIK(5&6FAM)-amide or Probe B AbuRPFK(5&6FAM)-amide); conditions: for inhibition at […]: 3 h, read-out: IC50 or PI cIAP1: PI
[4] = read-out: IC50 or PI cIAP1: IC50

C[C@@H]1CN(CC(=O)N2CC(C)(C)c3ncc(C(F)(F)CC4CC4)cc32)[C@@H](CN2CCCC2=O)CN1 [Example 230, 1-{[(2R,5R)-1-{2-[6-(2-Cyclopropyl-1,1-difluoroethyl)-3,3-dimethyl-1H,2H,3H-pyrrolo[3,2-b]pyridin-1-yl]-2-oxoethyl}-5-methylpiperazin-2-yl]methyl}pyrrolidin-2-one formate]
inhibition at 0.04 µM [1]: 53% | EC50 ([2]; 72 hours, Alamar Blue): 110 nM | inhibition at […] [3]: 60%

C[C@@H]1CN(CC(=O)N2CC(C)(C)c3ncc(C(F)(F)CC4CC4)cc32)[C@@H](CN2CCOCC2)CN1 [Example 231, 1-[6-(2-Cyclopropyl-1,1-difluoroethyl)-3,3-dimethyl-1H,2H,3H-pyrrolo[3,2-b]pyridin-1-yl]-2-[(2R,5R)-5-methyl-2-(morpholin-4-ylmethyl)piperazin-1-yl]ethan-1-one dihydrochloride]
IC50 [1]: 65 nM | EC50 ([2]; 72 h): 67 nM | IC50 [3]: < 1000 nM | IC50 [3, 4]: 9.5 nM

C[C@@H]1CN(CC(=O)N2CC(C)(C)c3ncc(C(F)(F)c4ccccc4)cc32)[C@@H](CN2CCOCC2)CN1 [Example 232, 1-{6-[Difluoro(phenyl)methyl]-3,3-dimethyl-1H,2H,3H-pyrrolo[3,2-b]pyridin-1-yl}-2-[(2R,5R)-5-methyl-2-(morpholin-4-ylmethyl)piperazin-1-yl]ethan-1-one dihydrochloride]
inhibition at 0.04 µM [1]: 48% | EC50 ([2]; 72 hours, Alamar Blue): 36 nM | inhibition at […] [3]: 77%

CCCC(F)(F)c1cc2c(cn1)C(C)(C)CN2C(=O)CN1C[C@@H](C)NC[C@@H]1Cc1nccs1 [Example 233, 1-[6-(1,1-Difluorobutyl)-3,3-dimethyl-1H,2H,3H-pyrrolo[3,2-c]pyridin-1-yl]-2-[(2S,5R)-5-methyl-2-(1,3-thiazol-2-ylmethyl)piperazin-1-yl]ethan-1-one hydrochloride]
IC50 [1]: 76 nM | EC50 ([2]; 72 hours, Alamar Blue): 91 nM | inhibition at […] ([3]; Probe B, @ 0.012 μM): 62%

C[C@@H]1CN(CC(=O)N2CC(C)(C)c3ncc(Cc4ccc(F)cc4F)cc32)[C@@H](CN2CCOCC2)CN1 [Example 236, 1-{6-[(2,4-Difluorophenyl)methyl]-3,3-dimethyl-1H,2H,3H-pyrrolo[3,2-b]pyridin-1-yl}-2-[(2R,5R)-5-methyl-2-(morpholin-4-ylmethyl)piperazin-1-yl]ethan-1-one dihydrochloride]
IC50 [1]: 58 nM | EC50 ([2]; 72 h): 7.8 nM | inhibition at […] [3]: 96%

C[C@@H]1CN(CC(=O)N2CC(C)(C)c3cnc(Cc4ccc(F)cc4)cc32)[C@@H](CN2CCOCC2)CN1 [Example 237, 1-{6-[(4-Fluorophenyl)methyl]-3,3-dimethyl-1H,2H,3H-pyrrolo[3,2-c]pyridin-1-yl}-2-[(2R,5R)-5-methyl-2-(morpholin-4-ylmethyl)piperazin-1-yl]ethan-1-one hydrochloride]
IC50 [1]: 55 nM | EC50 ([2]; 72 hours, Alamar Blue): 4.6 nM | inhibition at […] ([3]; Probe B, @ 0.012 μM): 97%

CCCC(F)(F)c1cc2c(cn1)C(C)(C)CN2C(=O)CN1C[C@@H](C)NC[C@@H]1CN1CCOCC1 [Example 239, 1-[6-(1,1-Difluorobutyl)-3,3-dimethyl-1H,2H,3H-pyrrolo[3,2-c]pyridin-1-yl]-2-[(2R,5R)-5-methyl-2-(morpholin-4-ylmethyl)piperazin-1-yl]ethan-1-one hydrochloride]
inhibition at 0.04 µM ([1]; @ 0.04 μM): 52% | EC50 ([2]; 72 hours, Alamar Blue): 32 nM | inhibition at […] ([3]; Probe B, @ 0.012 μM): 72%

C[C@@H]1CN(CC(=O)N2CC(C)(C)c3cnc(Cc4ccccc4F)cc32)[C@@H](CN2CCCC2=O)CN1 [Example 242, 1-{[(2R,5R)-1-(2-{6-[(2-Fluorophenyl)methyl]-3,3-dimethyl-1H,2H,3H-pyrrolo[3,2-c]pyridin-1-yl}-2-oxoethyl)-5-methylpiperazin-2-yl]methyl}pyrrolidin-2-one hydrochloride]
inhibition at 0.04 µM ([1]; @ 0.04 μM): 65% | EC50 ([2]; 72 hours, Alamar Blue): 13 nM | inhibition at […] ([3]; Probe B, @ 0.012 μM): 92%

C[C@@H]1CN(CC(=O)N2CC(C)(C)c3ncc(Cc4ccc(F)cc4)cc32)[C@@H](CN2C[C@@H](C)O[C@@H](C)C2)CN1 [Example 243, 2-[(2R,5R)-2-{[(2R,6S)-2,6-Dimethylmorpholin-4-yl]methyl}-5-methylpiperazin-1-yl]-1-{6-[(4-fluorophenyl)methyl]-3,3-dimethyl-1H,2H,3H-pyrrolo[3,2-b]pyridin-1-yl}ethan-1-one dihydrochloride]
IC50 [1]: 47 nM | EC50 ([2]; 72 h): 25 nM | inhibition at […] [3]: 100%

C[C@@H]1CN(CC(=O)N2CC(C)(C)c3cnc(Cc4ccccc4F)cc32)[C@@H](CN2CCOC[C@H]2C)CN1 [Example 244, 1-{6-[(2-Fluorophenyl)methyl]-3,3-dimethyl-1H,2H,3H-pyrrolo[3,2-c]pyridin-1-yl}-2-[(2R,5R)-5-methyl-2-{[(3R)-3-methylmorpholin-4-yl]methyl}piperazin-1-yl]ethan-1-one hydrochloride]
inhibition at 0.04 µM ([1]; @ 0.04 μM): 67% | EC50 ([2]; 72 hours, Alamar Blue): 2.2 nM | inhibition at […] ([3]; Probe B, @ 0.012 μM): 98%

C[C@@H]1CN(CC(=O)N2CC(C)(C)c3cnc(Cc4ccccc4F)cc32)[C@@H](CN2CCOCC2)CN1 [Example 245, 1-{6-[(2-Fluorophenyl)methyl]-3,3-dimethyl-1H,2H,3H-pyrrolo[3,2-c]pyridin-1-yl}-2-[(2R,5R)-5-methyl-2-(morpholin-4-ylmethyl)piperazin-1-yl]ethan-1-one hydrochloride]
IC50 [1]: 47 nM | EC50 ([2]; 72 hours, Alamar Blue): 4.2 nM | inhibition at […] ([3]; Probe B, @ 0.012 μM): 86%

CCCC(F)(F)c1cnc2c(c1)N(C(=O)CN1C[C@@H](C)NC[C@@H]1CN1C[C@@H](C)O[C@@H](C)C1)CC2(C)C [Example 246, 1-[6-(1,1-Difluorobutyl)-3,3-dimethyl-1H,2H,3H-pyrrolo[3,2-b]pyridin-1-yl]-2-[(2R,5R)-2-{[(2R,6S)-2,6-dimethylmorpholin-4-yl]methyl}-5-methylpiperazin-1-yl]ethan-1-one dihydrochloride]
IC50 [1]: 43 nM | EC50 ([2]; 72 h): 31 nM | inhibition at […] [3]: 76%

C[C@@H]1CN(CC(=O)N2CC(C)(C)c3ncc(Cc4ccccc4F)cc32)[C@@H](CN2CCOCC2)CN1 [Example 247, 1-{6-[(2-Fluorophenyl)methyl]-3,3-dimethyl-1H,2H,3H-pyrrolo[3,2-b]pyridin-1-yl}-2-[(2R,5R)-5-methyl-2-(morpholin-4-ylmethyl)piperazin-1-yl]ethan-1-one dihydrochloride]
IC50 [1]: 66 nM | EC50 ([2]; 72 h): 33 nM | inhibition at […] [3]: 80%

CCCC(F)(F)c1cnc2c(c1)N(C(=O)CN1C[C@@H](C)NC[C@@H]1CN1CCOC[C@H]1CC)CC2(C)C [Example 248, 1-[6-(1,1-Difluorobutyl)-3,3-dimethyl-1H,2H,3H-pyrrolo[3,2-b]pyridin-1-yl]-2-[(2R,5R)-2-{[(3R)-3-ethylmorpholin-4-yl]methyl]-5-methylpiperazin-1-yl]ethan-1-one dihydrochloride]
inhibition at 0.04 µM [1]: 69% | EC50 ([2]; 72 hours, Alamar Blue): 10 nM | inhibition at […] [3]: 91%

C[C@@H]1CN(CC(=O)N2CC(C)(C)c3ncc(Cc4ccccc4F)cc32)[C@@H](CN2CCCC2=O)CN1 [Example 249, 1-{[(2R,5R)-1-(2-{6-[(2-Fluorophenyl)methyl]-3,3-dimethyl-1H,2H,3H-pyrrolo[3,2-b]pyridin-1-yl}-2-oxoethyl)-5-methylpiperazin-2-yl]methyl}pyrrolidin-2-one hydrochloride]
inhibition at 0.04 µM ([1]; @ 0.04 μM): 56% | EC50 ([2]; 72 hours, Alamar Blue): 10 nM | inhibition at […] ([3]; Probe B, @ 0.012 μM): 90%

C[C@@H]1CN(CC(=O)N2CC(C)(C)c3cnc(Cc4ccc(F)cc4)cc32)[C@@H](CN2CCOC[C@H]2C)CN1 [Example 251, 1-{6-[(4-Fluorophenyl)methyl]-3,3-dimethyl-1H,2H,3H-pyrrolo[3,2-c]pyridin-1-yl}-2-[(2R,5R)-5-methyl-2-{[(3R)-3-methylmorpholin-4-yl]methyl}piperazin-1-yl]ethan-1-one dihydrochloride]
inhibition at 0.04 µM [1]: 68% | EC50 ([2]; 72 hours, Alamar Blue): 0.65 nM | inhibition at […] [3]: 99%

CCCC(F)(F)c1cc2c(cn1)C(C)(C)CN2C(=O)CN1C[C@@H](C)NC[C@@H]1CN1CCOC[C@H]1C [Example 252, 1-[6-(1,1-Difluorobutyl)-3,3-dimethyl-1H,2H,3H-pyrrolo[3,2-c]pyridin-1-yl]-2-[(2R,5R)-5-methyl-2-{[(3R)-3-methylmorpholin-4-yl]methyl}piperazin-1-yl]ethan-1-one diydrochloride]
inhibition at 0.04 µM ([1]; @ 0.04 μM): 72% | EC50 ([2]; 72 hours, Alamar Blue): 4 nM | inhibition at […] ([3]; Probe B, @ 0.012 μM): 91%

CC[C@@H]1COCCN1C[C@H]1CN[C@H](C)CN1CC(=O)N1CC(C)(C)c2ncc(C(C)(F)F)cc21 [Example 253, 1-[6-(1,1-Difluoroethyl)-3,3-dimethyl-1H,2H,3H-pyrrolo[3,2-b]pyridin-1-yl]-2-[(2R,5R)-2-{[(3R)-3-ethylmorpholin-4-yl]methyl}-5-methylpiperazin-1-yl]ethan-1-one dihydrochloride]
IC50 [1]: 50 nM | EC50 ([2]; 72 h): 51 nM | IC50 [3]: < 1000 nM | IC50 [3, 4]: 17 nM

CC[C@@H]1COCCN1C[C@H]1CN[C@H](C)CN1CC(=O)N1CC(C)(C)c2ncc(Cc3ccc(F)cc3)cc21 [Example 254, 2-[(2R,5R)-2-{[(3R)-3-Ethylmorpholin-4-yl]methyl}-5-methylpiperazin-1-yl]-1-{6-[(4-fluorophenyl)methyl]-3,3-dimethyl-1H,2H,3H-pyrrolo[3,2-b]pyridin-1-yl}ethan-1-one dihydrochloride]
inhibition at 0.04 µM [1]: 51% | EC50 ([2]; 72 hours, Alamar Blue): 1.9 nM | inhibition at […] [3]: 98%

CC[C@@H]1COCCN1C[C@H]1CN[C@H](C)CN1CC(=O)N1CC(C)(C)c2ncc(C(F)(F)CC)cc21 [Example 255, 1-[6-(1,1-Difluoropropyl)-3,3-dimethyl-1H,2H,3H-pyrrolo[3,2-b]pyridin-1-yl]-2-[(2R,5R)-2-{[(3R)-3-ethylmorpholin-4-yl]methyl}-5-methylpiperazin-1-yl]ethan-1-one dihydrochloride]
inhibition at 0.04 µM [1]: 49% | EC50 ([2]; 72 h): 32 nM | IC50 [3]: < 1000 nM | IC50 [3, 4]: 14 nM

Reference: patent US9018214B2, “Bicyclic heterocycle compounds and their uses in therapy” (Astex Therapeutics Limited, priority 2011, dated 2015)
